Read-outs that look alike come from different tables or passages of the source. Non-standard residues stand in square brackets, D forms with d. Ava = NCCCCC(=O)O
Columns and labels:
[1] = system: normal donor (DR0701) PBMC; type: cell-based, human
[2] = system: normal donor (DR0402) PBMC; type: cell-based, human
[3] = system: HIV gp160(843-855) peptide; type: in vivo; conditions: B10.A (5R) mice, peptides in saline solution, serum day 35
Method: An ELISA assay for antibody responses following immunization with the experimental peptides indicated above was performed as follows. Fifty microliters (μl) of a solution of the coating peptide at 2 μg/well in 0.1 M carbonate buffer, pH 9.5 was added to each well of a 96-well Nunc-immunoplate (#442404) for an overnight incubation at 4° C. After aspiration, 250 μl of phosphate-buffer saline solution containing 3% fetal bovine serum (assay diluent) was added to each well for 2 hr at RT. After washing three times with assay diluent, 50 μl of 20-times diluted mouse serum in 1:3 serial dilution in assay diluent was added to each well for 2 hr at RT. After washing three times with assay diluent, 50 μl of 1 ÿg/ml biotinylated goat anti-mouse IgG1 or IgG2a was added to each well and incubated for 1 hr at RT. After washing three times with assay diluent, 50 μl of streptavidin-horse radish peroxidase conjugate (1:1000) was added to each well and incubated for 30 min at RT. After washing three times with assay diluent, 100 μl of tetramethylbenzidine/H2O2 solution (Pharmingen 264KK) was added to each well for 15 min in the dark at room temperature. The reaction was stopped with 100 μl 1N H2SO4 in each well and the absorbance was read immediately at 450 nm.
B10.A (5R) mice (H-2^k/b) were immunized with 20 nmole of peptides in 50 μl phosphate-buffered saline solution, intramuscularly in right and left rear legs on days 1 and 2, respectively. On day 14 the mice were boosted intramuscularly with 40 nmole of peptides in 200 μl Hank's balanced salts solution intramuscularly in a rear leg. On day 30 the mice were boosted intravenously with 40 nmole peptides dissolved in Hank's balanced salts solution (HBSS). On day 35 the mice were sacrificed and serum samples were assayed for antibody titers against the HIV gp160(843-855) peptide.

Substance | IFN-γ spots pulsed [1] [spots] | IFN-γ spots unpulsed [1] [spots] | IFN-γ spots pulsed [2] [spots] | IFN-γ spots unpulsed [2] [spots] | other results
AE-Her-36 (Ac-GVGSPYVSRLLGICL-NH2; listed as Homo sapiens) | 100 | 4 | – | – | –
AE-Her-37 (Ac-LRMKGVGSPYVSRLLGICL-NH2) | 560 | 65 | – | – | –
AE-Her-38 (Ac-LRMK[Ava]SPYVSRLLGICL-NH2; SMILES CC[C@H](C)[C@H](NC(=O)CNC(=O)[C@H](CC(C)C)NC(=O)[C@H](CC(C)C)NC(=O)[C@H](CCCNC(=N)N)NC(=O)[C@H](CO)NC(=O)[C@@H](NC(=O)[C@H](Cc1ccc(O)cc1)NC(=O)[C@@H]1CCCN1C(=O)[C@H](CO)NC(=O)CCCCNC(=O)[C@H](CCCCN)NC(=O)[C@H](CCSC)NC(=O)[C@H](CCCNC(=N)N)NC(=O)[C@H](CC(C)C)NC(C)=O)C(C)C)C(=O)N[C@@H](CS)C(=O)N[C@@H](CC(C)C)C(N)=O) | 210 | 27 | – | – | –
AE-Her-39 (Ac-LRMK[Ava]GVGSPYVSRLLGICL-NH2; SMILES CC[C@H](C)[C@H](NC(=O)CNC(=O)[C@H](CC(C)C)NC(=O)[C@H](CC(C)C)NC(=O)[C@H](CCCNC(=N)N)NC(=O)[C@H](CO)NC(=O)[C@@H](NC(=O)[C@H](Cc1ccc(O)cc1)NC(=O)[C@@H]1CCCN1C(=O)[C@H](CO)NC(=O)CNC(=O)[C@@H](NC(=O)CNC(=O)CCCCNC(=O)[C@H](CCCCN)NC(=O)[C@H](CCSC)NC(=O)[C@H](CCCNC(=N)N)NC(=O)[C@H](CC(C)C)NC(C)=O)C(C)C)C(C)C)C(=O)N[C@@H](CS)C(=O)N[C@@H](CC(C)C)C(N)=O) | 160 | 24 | – | – | –
AE-Her-47 (Ac-LRMK[Ava]GSPYVSRLLGICL-NH2; SMILES CC[C@H](C)[C@H](NC(=O)CNC(=O)[C@H](CC(C)C)NC(=O)[C@H](CC(C)C)NC(=O)[C@H](CCCNC(=N)N)NC(=O)[C@H](CO)NC(=O)[C@@H](NC(=O)[C@H](Cc1ccc(O)cc1)NC(=O)[C@@H]1CCCN1C(=O)[C@H](CO)NC(=O)CNC(=O)CCCCNC(=O)[C@H](CCCCN)NC(=O)[C@H](CCSC)NC(=O)[C@H](CCCNC(=N)N)NC(=O)[C@H](CC(C)C)NC(C)=O)C(C)C)C(=O)N[C@@H](CS)C(=O)N[C@@H](CC(C)C)C(N)=O) | 380 | 23 | – | – | –
AE-Her-48 (Ac-LRMK[Ava]VGSPYVSRLLGICL-NH2; SMILES CC[C@H](C)[C@H](NC(=O)CNC(=O)[C@H](CC(C)C)NC(=O)[C@H](CC(C)C)NC(=O)[C@H](CCCNC(=N)N)NC(=O)[C@H](CO)NC(=O)[C@@H](NC(=O)[C@H](Cc1ccc(O)cc1)NC(=O)[C@@H]1CCCN1C(=O)[C@H](CO)NC(=O)CNC(=O)[C@@H](NC(=O)CCCCNC(=O)[C@H](CCCCN)NC(=O)[C@H](CCSC)NC(=O)[C@H](CCCNC(=N)N)NC(=O)[C@H](CC(C)C)NC(C)=O)C(C)C)C(C)C)C(=O)N[C@@H](CS)C(=O)N[C@@H](CC(C)C)C(N)=O) | 1770 | 212 | – | – | –
AE-TYR-1 (Ac-ALHIYMDGTMSQVQGSA-NH2) | – | – | 120 | 0 | –
AE-TYR-2 (Ac-HNALHIYMDGTMSQVQGSA-NH2) | – | – | 360 | 140 | –
AE-TYR-3 (Ac-LRMK[Ava]NALHIYMDGTMSQVQGSA-NH2; SMILES CC[C@H](C)[C@H](NC(=O)[C@H](Cc1c[nH]cn1)NC(=O)[C@H](CC(C)C)NC(=O)[C@H](C)NC(=O)[C@H](CC(N)=O)NC(=O)CCCCNC(=O)[C@H](CCCCN)NC(=O)[C@H](CCSC)NC(=O)[C@H](CCCNC(=N)N)NC(=O)[C@H](CC(C)C)NC(C)=O)C(=O)N[C@@H](Cc1ccc(O)cc1)C(=O)N[C@@H](CCSC)C(=O)N[C@@H](CC(=O)O)C(=O)NCC(=O)N[C@H](C(=O)N[C@@H](CCSC)C(=O)N[C@@H](CO)C(=O)N[C@@H](CCC(N)=O)C(=O)N[C@H](C(=O)N[C@@H](CCC(N)=O)C(=O)NCC(=O)N[C@@H](CO)C(=O)N[C@@H](C)C(N)=O)C(C)C)[C@@H](C)O) | – | – | 310 | 70 | –
AE-TYR-4 (Ac-LRMK[Ava]ALHIYMDGTMSQVQGSA-NH2; SMILES CC[C@H](C)[C@H](NC(=O)[C@H](Cc1c[nH]cn1)NC(=O)[C@H](CC(C)C)NC(=O)[C@H](C)NC(=O)CCCCNC(=O)[C@H](CCCCN)NC(=O)[C@H](CCSC)NC(=O)[C@H](CCCNC(=N)N)NC(=O)[C@H](CC(C)C)NC(C)=O)C(=O)N[C@@H](Cc1ccc(O)cc1)C(=O)N[C@@H](CCSC)C(=O)N[C@@H](CC(=O)O)C(=O)NCC(=O)N[C@H](C(=O)N[C@@H](CCSC)C(=O)N[C@@H](CO)C(=O)N[C@@H](CCC(N)=O)C(=O)N[C@H](C(=O)N[C@@H](CCC(N)=O)C(=O)NCC(=O)N[C@@H](CO)C(=O)N[C@@H](C)C(N)=O)C(C)C)[C@@H](C)O) | – | – | 620 | 340 | –
AE-TYR-6 (Ac-LRMK[Ava]HIYMDGTMSQVQGSA-NH2; SMILES CC[C@H](C)[C@H](NC(=O)[C@H](Cc1c[nH]cn1)NC(=O)CCCCNC(=O)[C@H](CCCCN)NC(=O)[C@H](CCSC)NC(=O)[C@H](CCCNC(=N)N)NC(=O)[C@H](CC(C)C)NC(C)=O)C(=O)N[C@@H](Cc1ccc(O)cc1)C(=O)N[C@@H](CCSC)C(=O)N[C@@H](CC(=O)O)C(=O)NCC(=O)N[C@H](C(=O)N[C@@H](CCSC)C(=O)N[C@@H](CO)C(=O)N[C@@H](CCC(N)=O)C(=O)N[C@H](C(=O)N[C@@H](CCC(N)=O)C(=O)NCC(=O)N[C@@H](CO)C(=O)N[C@@H](C)C(N)=O)C(C)C)[C@@H](C)O) | – | – | 650 | 280 | –
Ac-LRMK-ava-AYRAIRHIPR-NH2 (Ac-LRMK[Ava]AYRAIRHIPR-NH2; SMILES CC[C@H](C)[C@H](NC(=O)[C@H](C)NC(=O)[C@H](CCCNC(=N)N)NC(=O)[C@H](Cc1ccc(O)cc1)NC(=O)[C@H](C)NC(=O)CCCCNC(=O)[C@H](CCCCN)NC(=O)[C@H](CCSC)NC(=O)[C@H](CCCNC(=N)N)NC(=O)[C@H](CC(C)C)NC(C)=O)C(=O)N[C@@H](CCCNC(=N)N)C(=O)N[C@@H](Cc1c[nH]cn1)C(=O)N[C@H](C(=O)N1CCC[C@H]1C(=O)N[C@@H](CCCNC(=N)N)C(N)=O)[C@@H](C)CC) [Ii-Key/one-ava/gp160(843-855)] | – | – | – | – | Antibody induction, ELISA against HIV gp160(843-855) peptide ([3]; Dilution^−1 20): 0.600; Antibody induction, ELISA against HIV gp160(843-855) peptide ([3]; Dilution^−1 60): 0.157; Antibody induction, ELISA against HIV gp160(843-855) peptide ([3]; Dilution^−1 180): 0.073; Antibody induction, ELISA against HIV gp160(843-855) peptide ([3]; Dilution^−1 540): 0.024
Ac-LRMK-ava-ava-AYRAIRHIPR-NH2 (Ac-LRMK[Ava][Ava]AYRAIRHIPR-NH2; SMILES CC[C@H](C)[C@H](NC(=O)[C@H](C)NC(=O)[C@H](CCCNC(=N)N)NC(=O)[C@H](Cc1ccc(O)cc1)NC(=O)[C@H](C)NC(=O)CCCCNC(=O)CCCCNC(=O)[C@H](CCCCN)NC(=O)[C@H](CCSC)NC(=O)[C@H](CCCNC(=N)N)NC(=O)[C@H](CC(C)C)NC(C)=O)C(=O)N[C@@H](CCCNC(=N)N)C(=O)N[C@@H](Cc1c[nH]cn1)C(=O)N[C@H](C(=O)N1CCC[C@H]1C(=O)N[C@@H](CCCNC(=N)N)C(N)=O)[C@@H](C)CC) [Ii-Key/two-ava/gp160(843-855)] | – | – | – | – | Antibody induction, ELISA against HIV gp160(843-855) peptide ([3]; Dilution^−1 20): 0.131; Antibody induction, ELISA against HIV gp160(843-855) peptide ([3]; Dilution^−1 60): 0.039; Antibody induction, ELISA against HIV gp160(843-855) peptide ([3]; Dilution^−1 180): 0.027; Antibody induction, ELISA against HIV gp160(843-855) peptide ([3]; Dilution^−1 540): 0.003
